From patent publication US5308766A (priority 1990, dated 1994)

Assays:
[1] = target: PLA2 obtained from cobra venom (N. naja naja) (Naja naja, UniProt P15445); format: biochemical
[2] = target: phospholipase A2 obtained from cobra venom (Naja naja, UniProt P15445); format: biochemical
[3] = Stability of p-nitrophenyl esters in solvents; format: physicochemical; settings: polar solvents such as alcohols
Description: Pure samples of 1a-1e were obtained after HPLC chromatography using anhydrous MeOH to elute the lipid from a Brownlee C18 column. […] Storage of these compounds at -10° C. in CHCl3 or CH2 Cl2 greatly enhances the stability. Therefore, HPLC-purified SIBLINKS were immediately transferred to CHCl3 for storage. In an aqueous environment, the stability is enhanced when incorporated into vesicles or Triton micelles. The following are representative spectral data for lipids 1b, 1c, 1d and 1e containing a decanoyl (C10) chain moiety at the sn-1 position.

[4] = target: phospholipase A2 obtained from cobra venom (Naja naja naja) (Naja naja, UniProt P15445); format: biochemical
phospholipase A2 obtained from cobra venom (Naja naja naja), sequence (P15445 whole entry, looked up): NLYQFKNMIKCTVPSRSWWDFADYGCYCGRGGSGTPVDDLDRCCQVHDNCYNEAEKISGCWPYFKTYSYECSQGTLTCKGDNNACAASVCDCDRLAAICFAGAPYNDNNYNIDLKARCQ

[5] = target: cobra venom phospholipase A2 (PLA2) (Naja naja, UniProt P15445); settings: cited from earlier work
cobra venom phospholipase A2 (PLA2), sequence (P15445 whole entry, looked up): as above

[6] = target: bee venom phospholipase A2 (PLA2) (Apis mellifera, UniProt P00630); settings: cited from earlier work
bee venom phospholipase A2 (PLA2), sequence (P00630 34-167 limits assumed): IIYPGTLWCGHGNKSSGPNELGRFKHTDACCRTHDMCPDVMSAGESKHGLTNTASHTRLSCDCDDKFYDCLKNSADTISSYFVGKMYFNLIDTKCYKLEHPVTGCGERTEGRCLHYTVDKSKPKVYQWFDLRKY

[7] = in vivo; cited from earlier work
[8] = test system: PLA2; settings: modification of lysine residues; cited from earlier work

phospholipase A2 obtained from cobra venom, sequence (P15445 whole entry, looked up): as the sequence (P15445 whole entry, looked up) above
PLA2 obtained from cobra venom (N. naja naja), sequence (P15445 whole entry, looked up): as above

| SMILES | V, initial velocity for release of p-nitrophenol [1] | efficiency of enzymatic deactivation (suicide inhibition) [2] | effect on P of raising preincubation temperature [2] | effect on inactivation time course of raising preincubation temperature [2] | stability of p-nitrophenyl ester [3] | further results |
| --- | --- | --- | --- | --- | --- | --- |
| CCCCCCCCCC(=O)OC[C@H](COP(=O)([O-])OCC[N+](C)(C)C)OC(=O)CC(C)(C)CC(=O)Oc1ccc([N+](=O)[O-])cc1 [1c] | 0.002 µmol/min/mg | more efficient suicide inhibitors |  |  |  |  |
| CCCCCCCCCC(=O)OC[C@H](COP(=O)([O-])OCC[N+](C)(C)C)OC(=O)CCC(=O)Oc1ccc([N+](=O)[O-])cc1 [1d] | 0.6 µmol/min/mg | less efficient, but is processed faster | did increase P | little effect | especially prone to hydrolysis | concentration below which mixed micelles do not inhibit [2]: 20 NM; ratio of inhibitor/PLA2 needed to observe inhibition [2]: > 40 |
| CCCCCCCCCC(=O)OC[C@H](COP(=O)([O-])OCC[N+](C)(C)C)OC(=O)CC(C)(C)C(=O)Oc1ccc([N+](=O)[O-])cc1 [1e] | 0.005 µmol/min/mg | more efficient suicide inhibitors |  |  |  |  |
| CCCCCCCCCC(=O)OC[C@H](COP(=O)([O-])OCC[N+](C)(C)C)OC(=O)CCCC(=O)Oc1ccc([N+](=O)[O-])cc1 [compound 1a] | 155 µmol/min/mg |  |  |  | especially prone to hydrolysis | change of hydrolysis rate with Triton/phospholipid surface ratio [4]: diminishes three-fold; concentration of substrate required to reach half saturation, versus DPPC [4]: lower concentration of substrate |
| CCCCCCCCCC(=O)OC[C@H](COP(=O)([O-])OCC[N+](C)(C)C)OC(=O)CCC(C)(C)C(=O)Oc1ccc([N+](=O)[O-])cc1 [compound 1b] | 0.11 µmol/min/mg | more efficient suicide inhibitors | did increase P | little effect |  |  |
| CC1=C(CC/C(C)=C/CCC2=CC[C@H](C3=CC(=O)O[C@H]3O)O[C@H]2O)C(C)(C)CCC1 [manoalide] |  |  |  |  |  | inhibition of cobra venom PLA2 [5]: inhibitor of both cobra and bee venom phospholipase A2; inhibition of bee venom PLA2 [6]: inhibitor of both cobra and bee venom phospholipase A2; anti-inflammatory activity [7]: anti-inflammatory activity in vivo; mode of PLA2 inactivation [8]: time-dependent irreversible inactivation |
